Measured values taken from US4374843A, “2-Guanidino-4-heteroarylthiazoles” (Pfizer Inc., priority 1981, dated 1983).
Counter-ions that a name gives are not always drawn.

Legend:
H2 -receptor = target: T1, H2 -receptor (Cavia porcellus, UniProt P47747); experiment: Histamine-H2 antagonist activity in isolated guinea pig right atria; format: cell-based; conditions: histamine dose-response curve in presence and absence of antagonist, 32°; for Kb: Krebs-Henseleit buffer pH 7.4, read-out: pA2 (apparent dissociation constant of the H2-receptor antagonist) (converted)
T1 construct: the heart removed and the right atria dissected free; from tissue; host or cells: isolated guinea pig right atria
Method: The histamine-H2 antagonist activity of compounds of the present invention was determined by the following procedure:
Guinea pigs are killed rapidly with a blow to the head, the heart removed and the right atria dissected free. Atria are suspended, isometrically, in a temperature-controlled (32°±2°) tissue bath (10 ml containing oxygenated (95% O2; 5% CO2) Krebs-Henseleit buffer (pH 7.4) and are allowed to stabilize approximately one hour during which time the tissue bath is flushed several times. Individual atrial contractions are followed with a force-displacement transducer connected to a cardiotachometer and Grass polygraph recorder. After obtaining a dose-response curve to histamine, the bath containing each atrium is flushed several times with fresh buffer and the atria re-equilibrated to basal rates. Following the return to basal rate, test compounds are added at selected final concentrations and the histamine dose-response curve is again determined in the presence of antagonist. Results are expressed as dose-ratios, the ratio of histamine concentrations required to produce one-half of maximal stimulation in the presence and absence of antagonist, and the apparent dissociation constant of the H2 -receptor antagonist pA2, is determined.

Heidenhain pouch dogs = experiment: Gastric acid antisecretory activity in pentagastrin-stimulated Heidenhain pouch dogs; format: in vivo, dog; conditions: Canis lupus familiaris, iv, 1.5 h; 1 mg/kg intravenously, 90 min after start of pentagastrin infusion; lowest acid output after drug vs mean acid output immediately before drug; conscious fasted dogs; read-out: inhibited gastric acid secretion
Method: The gastric acid antisecretory activity of compounds of the present invention was determined in overnight fasted, conscious Heidenhain pouch dogs. Pentagastrin (Pentavlon-Ayerst was used to stimulate acid output by continuous infusion into a superficial leg vein at doses earlier determined to stimulate near maximal acid output from the gastric pouch. Gastric juice was collected at 30 minute intervals following the start of a pentagastrin infusion and measured to the nearest 0.1 ml. Ten collections were taken for each dog during an experiment. Acid concentration was determined by titrating 1.0 ml of gastric juice to pH 7.4 with 0.1 N sodium hydroxide using an Autoburette and a glass electrode pH meter (Radiometer).
Drug or vehicle was given intraveneously 90 minutes following the start of the pentagastrin infusion, at a dose of 1 mg/kg. Gastric acid antisecretory effects were calculated by comparing the lowest acid output after drug administration with the mean acid output immediately before drug.

T1 sequence (P47747 whole entry): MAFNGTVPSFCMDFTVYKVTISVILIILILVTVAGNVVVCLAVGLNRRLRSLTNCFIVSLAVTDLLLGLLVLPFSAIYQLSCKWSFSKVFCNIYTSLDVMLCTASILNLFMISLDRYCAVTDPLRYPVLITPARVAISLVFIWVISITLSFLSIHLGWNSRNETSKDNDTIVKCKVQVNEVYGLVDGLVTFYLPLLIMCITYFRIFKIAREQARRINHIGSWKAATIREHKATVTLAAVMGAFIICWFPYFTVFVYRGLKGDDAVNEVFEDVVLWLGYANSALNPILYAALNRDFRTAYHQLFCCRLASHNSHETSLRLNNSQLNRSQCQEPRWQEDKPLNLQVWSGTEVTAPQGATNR

| Structure (SMILES) | Kb (H2 -receptor) | inhibition at 1 mg/kg (Heidenhain pouch dogs) | pA2 (apparent dissociation constant of the H2-receptor antagonist) (H2 -receptor; Krebs-Henseleit buffer pH 7.4) |
| --- | --- | --- | --- |
| N=C(N)Nc1nc(-c2csc(N)n2)cs1 [Example 4, 2-Guanidino-4-(2-amino-4-thiazolyl)thiazole dihydrobromide] | < 2000 nM | ≥ 15% | – |
| N=C(N)Nc1nc(-c2cscn2)cs1 [Example 5, 2-Guanidino-4-(4-thiazolyl)thiazole] | < 2000 nM | ≥ 15% | – |
| CNc1nc(-c2csc(NC(=N)N)n2)cs1 [Example 6, 2-Guanidino-4-(2-N-methylamino-4-thiazoyl)thiazole] | < 2000 nM | ≥ 15% | – |
| CC(=O)Nc1nc(-c2csc(NC(=N)N)n2)cs1 [Example 7, 2-Guanidino-4-(2-N-acetylamino-4-thiazoyl)thiazole] | < 2000 nM | ≥ 15% | – |
| N=C(N)Nc1nc(-c2nc(N)n[nH]2)cs1 [Example 11, 2-Guanidino-4-(3-amino-5-1,2,4-triazolyl)thiazole] | – | ≥ 15% | – |
| Cc1n[nH]c(-c2csc(NC(=N)N)n2)n1 [Example 13, 2-Guanidino-4-(3-methyl-5-1,2,4-triazolyl)thiazole hemihydrate] | – | ≥ 15% | – |
| CCCc1n[nH]c(-c2csc(NC(=N)N)n2)n1 [Example 15, 2-Guanidino-4-(3-propyl-5-1,2,4-triazolyl)thiazole hemihydrate] | < 2000 nM | ≥ 15% | – |
| CCc1n[nH]c(-c2csc(NC(=N)N)n2)n1 [Example 17, 2-Guanidino-4-(3-ethyl-5-1,24-triazolyl)thiazole] | < 2000 nM | ≥ 15% | – |
| N=C(N)Nc1nc(-c2c[nH]c(N)n2)cs1 [Example 20, 2-Guanidino-4-(2-amino-4-imidazolyl)thiazole] | – | ≥ 15% | – |
| CNc1nc(-c2csc(NC(=N)N)n2)c[nH]1 [Example 21, 2-Guanidino-4-(2-N-methylamino-4-imidazoyl)thiazole dihydrochloride] | < 2000 nM | ≥ 15% | – |
| CCNc1nc(-c2csc(NC(=N)N)n2)c[nH]1 [Example 22, 2-Guanidino-4-(2-N-ethylamino-4-imidazoyl)thiazole dihydrochloride] | < 2000 nM | ≥ 15% | – |
| CCCNc1nc(-c2csc(NC(=N)N)n2)c[nH]1 [Example 23, 2-(Guanidino-4-(2-N-n-propylamino-4-imidazoyl)thiazoledihydrochloride] | < 2000 nM | ≥ 15% | – |
| CC(C)Nc1nc(-c2csc(NC(=N)N)n2)c[nH]1 [Example 24, 2-Guanidino-4-(2-N-i-propylamino-4-imidazoyl)thiazole dihydrochloride] | < 2000 nM | ≥ 15% | – |
| CCCCNc1nc(-c2csc(NC(=N)N)n2)c[nH]1 [Example 25, 2-Guanidino-4-(2-N-n-butylamino-4-imidazoyl)thiazole dihydrochloride] | < 2000 nM | ≥ 15% | – |
| N=C(N)Nc1nc(-c2c[nH]c(NCc3ccccc3)n2)cs1 [Example 26, 2-Guanidino-4-(2-N-benzylamino-4-imidazoyl)thiazole dihydrochloride] | < 2000 nM | ≥ 15% | – |
| N=C(N)Nc1nc(-c2c[nH]c(NCCc3ccccc3)n2)cs1 [Example 27, 2-Guanidino-4-(2-N-phenethylamino-4-imidazoyl)thiazole dihydrochloride] | < 2000 nM | ≥ 15% | – |
| CC(=O)Nc1nc(-c2csc(NC(=N)N)n2)c[nH]1 [Example 28, 2-Guanidino-4-(2-N-acetamido-4-imidazoyl)thiazole] | < 2000 nM | ≥ 15% | – |
| N=C(N)Nc1nc(-c2c[nH]cn2)cs1 [Example 31, 2-Guanidino-4-(4-imidazoyl)thiazole hydrobromide] | – | ≥ 15% | – |
| Cc1ncc(-c2csc(N=C(N)N)n2)[nH]1 [Example 37, 2-Guanidino-4-(2-methyl-4-imidazolyl)thiazole] | < 2000 nM | ≥ 15% | – |
| Cc1nc[nH]c1-c1csc(NC(=N)N)n1 [Example 41, 2-Guanidino-4-(4-methyl-5-imidazolyl)thiazole hydrobromide] | < 2000 nM | ≥ 15% | – |
| Cc1nc(C)c(-c2csc(NC(=N)N)n2)[nH]1 [Example 45, 2-Guanidino-4-(2,4-dimethyl-4-imidazolyl)thiazole hydrobromide hemihydrate] | – | ≥ 15% | greater than 5.7 |
| N=C(N)Nc1nc(-c2c[nH]c(Nc3ccccc3)n2)cs1 [Example 46, 2-Guanidino-4-(2-N-phenylamino-4-imidazolyl)thiazole] | < 2000 nM | – | – |
| N=C(N)Nc1nc(-c2c[nH]c(CO)n2)cs1 [Example 50, 2-Guanidino-4-(2-hydroxymethyl-4-imidazolyl)thiazole hydrobromide] | < 2000 nM | ≥ 15% | – |
